Data as given in PMC4115230, “Lipid–Protein Nanodiscs Offer New Perspectives for Structural and Functional Studies of Water-Soluble Membrane-Active Peptides” (Acta Naturae, 2014).
“Also recorded” adds a separate entry of the source. Where no end group is shown, it is not given here.

Assays:
[1] = ref [12], [15], [20]; cited from earlier work
Description: (§1) Given that the mechanisms associated with the change in the local curvature of the lipid bilayer (“toroidal” pore formation, bilayer micellization) underlie the action of the overwhelming majority of water- soluble cationic AMPs, we can assume that many of these molecules will have a destructive effect on LPNs. Thus, nanodiscs are probably not suited as a medium for studying these peptides. It should be noted that there are other classes of channel- and pore-forming biomolecules that can be studied in LPN-based media.

[2] = system: LPNs; conditions: ref [12], [15], [20]; cited from earlier work
Description: as §1

[3] = system: LPNs; assay: Gel filtration analysis of LPNs after peptide addition (nanodisc integrity, particle size); format: physicochemical; conditions: for nanodisc disruption: 1 mM EDTA, pH 7.4, 280 nm
Procedure: was carried out on a Superdex-200 resin using a Tricorn 5/200 column (GE Healthcare, Sweden) in buffer (10 mM Tris-HCl, 0.1 M NaCl, 1 mM EDTA, 1 mM NaN3, pH 7.4). Thyroglobulin (669 kDa, Stokes radius RH = 8.5 nm), ferritin (440 kDa, RH = 6.1 nm), catalase (232 kDa, RH = 5.22 nm), aldolase (158 kDa, RH = 4.81 nm) BSA (67 kDa, RH = 3.55 nm), and ovalbumin (43 kDa, RH = 3.05 nm) were used as calibration proteins. The flow rate through the column was 0.3 ml/min. Detection was performed at 280 nm. The particle size was determined from the elution volume vs the lgRH calibration curve. All the particle size (diameter) values provided below correspond to twice RH values. ;

[4] = system: LPNs; assay: Opalescence/opacity of LPN solutions on Ar2 addition; format: physicochemical
Procedure: During that study, an aqueous Ar2 solution was added to nanodisc samples. […] An analysis of the sample supernatants by gel filtration confirmed this assumption. […] A similar process is known as high-density lipoprotein remodeling, which can occur both in vitro and in vivo upon the interaction of lipoprotein particles with lipophilic plasma proteins. Previously, nanodisc fusion had been observed in cell-free protein biosynthesis systems with the cotranslational incorporation of membrane proteins into LPNs containing unsaturated lipids. The spontaneous LPN fusion in vitro proceeds very slowly, but it could be considerably accelerated under denaturing conditions.

[5] = Mean Kyte-Doolittle hydrophobicity index; conditions: among the three studied peptides
Description: The problems related to the application of LPNbased membrane mimetic media in structural and biophysical studies of water-soluble MPs have yet to be studied. It should be noted that this is far from being a trivial matter, since LPNs, unlike vesicles, bicelles, and micelles, contain an additional component, MSP, which is an anionic protein (charge of –6). In this paper, the interaction of water-soluble MPs with LPNs was studied using three model cationic β-structured peptides (Fig. 1), which have different physicochemical properties and represent three classes of membrane-active compounds. The antimicrobial peptide arenicin-2 (Ar2, 21 AA, 2772 Da, charge of +6, mean Kyte-Doolittle hydrophobicity index is –0.06, The maximum and minimum values of the Kyte-Doolittle hydrophobicity index are +4.5 and –4.5 for poly-Ile and poly-Arg sequences, respectively.) from coelomocytes of the polychaete lugworm Arenicola marina interacts selectively with membranes containing negatively charged lipid molecules and forms oligomeric pores in them. The VSTx1 toxin (34 AA, 4010 Da, charge of +3, hydrophobicity index is –0.27) from Grammostola spatulata spider venom uses the “membrane catalysis” mechanism to interact with the voltage-sensitive domains of K+-channels localized in the cell membrane, and it lacks pore-forming ability. […]

[6] = CD spectroscopy; ref [18], [21]; cited from earlier work
[7] = CD spectroscopy; ref [18], [21]; cited from earlier work; remark: listed apart in the source
[8] = cited from earlier work
Description: The cationic AMP, Ar2, contains mainly positively charged and hydrophobic residues and has a β-hairpin structure in water, which is stabilized with one disulfide bond (Fig. 1). […] As expected, the β-hairpins of individual peptides within the pore have a transmembrane orientation, so that the ...

[9] = system: LPN/POPC; assay: NMR titration binding isotherm with LPN/POPC nanodiscs
Procedure: (§2) The recombinant 44–243 fragment of the human apolipoprotein A1 with a N-terminal sequence of six His residues was used as an MSP protein. The purified MSP protein, obtained as described in [20], was mixed at a molar ratio of 1 : 75 with lipids in the presence of a detergent, sodium cholate (2 : 1 cholate/lipids molar ratio), and the mixture was incubated at 4 °C for 3 h. When using saturated lipids (DLPC, DLPG), the reaction temperature was kept not lower than 25 °C. Spontaneous LPN assembly was initiated by detergent sorption to the Bio-Beads™ resin (Bio-Rad, USA) for 1.5 h. Purification of the nanodiscs was performed on a Ni^2+ Sepharose 6 Fast Flow resin (GE Healthcare, USA) equilibrated with buffer A (20 mM Tris-HCl, 0.5 M NaCl, 1 mM NaN3, pH 8.0). After loading the reaction mixture, the resin was washed with a fivefold volume of buffer A. LPNs were eluted with buffer A containing 100 mM imidazole. The MSP concentration was determined spectrophotometrically by absorbance at λ = 280 nm. The LPN concentration was determined by assuming that each nanodisc contained two MSP molecules.
(§3) NMR spectra were acquired at 40–45 °C on AVANCE -700 and AVANCE -III-800 spectrometers (Bruker, Germany) equipped with cryogenically cooled triple-resonance probes at the proton resonance frequencies of 700 and 800 MHz, respectively.
(§4) To measure the isotherms of the toxins binding to LPNs and MSP molecules, the VSTx1 and NT II samples ([…], 10 mM Tris-Ac, pH 7.0) were titrated with solutions of nanodiscs (70 μM) of various lipid compositions or with a MSP solution (0.7 mM). The 1D 1H-NMR spectrum was acquired at each point. A data analysis was performed assuming that the intensity of the observed NMR signals of a peptide is proportional to its equilibrium concentration in solution ([P]free). The binding curves were fitted either to the partition equilibrium equation (1) or to the Langmuir isotherm equation (2), taking into account the dilution of the initial samples upon titration:
(§5) where [LPN/lipid] is the LPN concentration (assuming that one nanodisc contains two MSP molecules) or the lipid concentration (assuming that one nanodisc contains 150 lipid molecules), [P]boundis the concentration of a peptide bound to LPN ([P]0 = [P]free+ [P]bound), Kpis the partition coefficient, n is the number of binding sites for a peptide on the nanodisc surface, and Knis the affinity constant of the peptide to the binding site on the nanodisc surface.

[10] = system: LPN/POPC/DOPG (3 : 1); assay: NMR titration binding isotherm with LPN/POPC/DOPG (3 : 1) nanodiscs
Procedure: as §2, §3, §4, §5

[11] = system: MSP (44-243 fragment of human apolipoprotein A1); assay: NMR titration binding isotherm with MSP
Procedure: as §2, §3, §4, §5

[12] = system: nanodisc surface or MSP molecule; assay: Langmuir analysis of VSTx1 binding to sites on nanodisc surface or MSP; conditions: Langmuir isotherm (eq. 2); range over LPN/POPC, LPN/POPC/DOPG and MSP
Procedure: as §4, §5

[13] = buffer containing 150 mM KCl; ref [3]; cited from earlier work
Description: These differences in the toxin affinity may b ...

[14] = ref [31]; cited from earlier work
Description: (§6) The VSTx1 toxin is a small β-structured peptide stabilized by three disulfide bonds which form a “cysteine knot” (Fig. 1). […] According to current data, VSTx1 inhibits the voltage-dependent activation of K^+ channels and uses “membrane catalysis” mechanisms when forming a complex with the voltage-sensing domain of the channel.

[15] = system: K^+ channels; conditions: ref [3]; cited from earlier work
Description: as §6

[16] = Superdex-200, 10 mM Tris-HCl, 0.1 M NaCl
[17] = Langmuir isotherm (eq. 2), 10 mM Tris-Ac, pH 7.0, 40–45 °C
[18] = maximum ("up to"), Langmuir isotherm
[19] = partition equilibrium (eq. 1), lipid concentration as non-aqueous phase (150 lipids per nanodisc), 10 mM Tris-Ac, pH 7.0, 40–45 °C, no added salt

antiamoebin I
upper limit of solubility in water [1]: 30 µM
complex formation with LPNs [2]: formation of stable complexes

arenicin-2 (RWCVYAYVRIRGVLVRYRRCW; not fully specified; ends and bridges not checked; UniProt Q5SC59 182-202, looked up) [Ar2, antimicrobial peptide (21 AA) from coelomocytes of the polychaete lugworm Arenicola marina]
size of large complexes ([3]; Ar2/LPN sample supernatants, Superdex-200, pH 7.4, diameter = 2 RH): ~ 15 nm
nanodisc disruption [3, 16]: causes nanodisc fusion, accompanied by the release of MSP molecules
nanodisc disruption ([3]; Superdex-200, 10 mM Tris-HCl, 0.1 M NaCl, listed as arenicin-2): disintegrates LPNs
LPN solution turbidity ([4]; equimolar concentrations (Ar2/LPN = 1 : 1) and higher): opaque
LPN solution turbidity ([4]; small peptide concentrations added): strongly opalescent
relative hydrophobicity [5]: most hydrophobic among the studied peptides
interaction with POPC vesicles/liposomes [6]: does not interact
binding to DOPG liposomes [7]: binds with high affinity
bilayer micellization ([8]; at high concentrations, ref [24]): probably causes bilayer micellization
interaction with membranes containing negatively charged lipids ([8]; ref [18]): interacts selectively with membranes containing negatively charged lipid molecules and creates in them oligomeric pores

VSTx1 (GSECGKFMWKCKNSNDCCKDLVCSSRWKWCVLASPF; not fully specified; ends and bridges not checked)
Kn, affinity constant of the peptide to the binding site on the LPN surface [9, 17]: 0.06 ± 0.01 ×10^6·M^-1
n, number of binding sites on the LPN surface [9, 17]: 9.6 ± 1.5
binding to LPNs ([9]; POPC, 1D 1H-NMR titration, 10 mM Tris-Ac, pH 7.0): lower affinity; also recorded: interacts less efficiently
toxin molecules bound per nanodisc containing POPC (~ 150 molecules) [9, 18]: ~ 10 toxin molecules
Kp(LPN, MSP×2), partition coefficient ([9]; partition equilibrium (eq. 1), LPN concentration as non-aqueous phase, 1D 1H-NMR titration, 10 mM Tris-Ac, pH 7.0, 40–45 °C, no added salt): 0.39 ± 0.02 ×10^6·M^-1
Kp(Lipids), partition coefficient [9, 19]: 2.6 ± 0.2 ×10^3·M^-1
Kn, affinity constant of the peptide to the binding site on the LPN surface [10, 17]: 0.13 ± 0.02 ×10^6·M^-1
n, number of binding sites on the LPN surface [10, 17]: 34.5 ± 3.9
binding to LPNs ([10]; POPC/DOPG, 3 : 1, 1D 1H-NMR titration, 10 mM Tris-Ac, pH 7.0): effectively binds; also recorded: interacts effectively with LPNs containing anionic lipids
lipid molecules per toxin molecule ([10]; at ~ 35 binding sites per nanodisc): ~ 4 lipid molecules per toxin molecule
number of binding sites with negatively charged lipids added [10, 18]: ~ 35
Kp(LPN, MSP×2), partition coefficient ([10]; partition equilibrium (eq. 1), LPN concentration as non-aqueous phase, 10 mM Tris-Ac, pH 7.0, 40–45 °C, no added salt): 2.68 ± 0.24 ×10^6·M^-1
Kp(Lipids), partition coefficient [10, 19]: 17.8 ± 1.6 ×10^3·M^-1
interaction with MSP ([11]; MSP without lipids, 1D 1H-NMR titration, 10 mM Tris-Ac, pH 7.0): weakly interacts; also recorded: weak interaction
Kn, affinity constant of the peptide to the binding site ([11]; MSP×2, no lipids, Langmuir isotherm (eq. 2), 10 mM Tris-Ac, pH 7.0, 40–45 °C): 0.05 ± 0.02 ×10^6·M^-1
Kp(LPN, MSP×2), partition coefficient ([11]; MSP×2, no lipids, partition equilibrium (eq. 1), titration with 0.7 mM MSP, 10 mM Tris-Ac, pH 7.0, 40–45 °C): 0.10 ± 0.01 ×10^6·M^-1
VSTx1 molecules bound per MSP molecule ([11]; in the absence of lipids, each MSP molecule): up to 1.6 VSTx1 molecules
nanodisc disruption [3, 16]: does not cause their disruption; also recorded: no nanodisc disruption
diameter of unbound toxin ([3]; Superdex-200, 10 mM Tris-HCl, 0.1 M NaCl, pH 7.4, diameter = 2 RH): ~ 2.0 nm
Kn, affinity to the sites on the nanodisc surface or on a MSP molecule [12]: 50000 to 130000 M⁻¹
Kp, partition coefficient, vesicles of POPE/POPG (3 : 1) [13]: ~ 2 × 10^3 × 10^3 M^-1
affinity for interface of phospholipid membranes containing anionic lipids [14]: considerable affinity
interaction with zwitterionic lipid membranes [14]: weakly interacts
membrane lytic activity [14]: no membrane lytic activity
voltage-dependent activation of K^+ channels [15]: inhibits
